Where “and” joins values, the source holds several entries; their conditions need not be identical. Equal values may be shown once. After the bases stand the sugars from the 5' end (letter, count) and the backbone: PS all phosphorothioate, else s phosphorothioate and o phosphodiester by linkage. Methylation of C is not given here. e = 2'-O-(2-methoxyethyl) (MOE); k = constrained ethyl (cEt); d = 2'-deoxy (DNA)
Key:
KRAS = conditions: ASO
IRF5 = conditions: ASO

Sequence	target mRNA inhibition (KRAS; A431, 2 µM)	further results
AAAAAATTAATGTCTT (sugars k3 d10 k3, PS)	9%	
AAAACAAATGCTAATA (sugars k3 d10 k3, PS)	12%	
AAAATTAATGTCTTGG (sugars k3 d10 k3, PS)	12%	
AAATCTGAATTAGTCT (sugars k3 d10 k3, PS)	25%	
AAATGCTAATAATTTA (sugars k3 d10 k3, PS)	13%	
AAGATGGTGTAACATA (sugars k3 d10 k3, PS)	30%	
AATCTTATGGTTAGGG (sugars k3 d10 k3, PS)	45%	target mRNA inhibition (KRAS; A431, 0.185 µM): 2%; target mRNA inhibition (KRAS; A431, 0.556 µM): 2%; target mRNA inhibition (KRAS; A431, 1.667 µM): 35%; target mRNA inhibition (KRAS; A431, 5 µM): 52%
AATCTTTTAATGTCAC (sugars k3 d10 k3, PS)	44%	
AATGCTAATAATTTAG (sugars k3 d10 k3, PS)	0%	
AATTAGTGATTAGGTC (sugars k3 d10 k3, PS)	32%	
AATTGTGCAATGGTGA (sugars k3 d10 k3, PS)	46%	
ACCAGTGTTAAGAGAA (sugars k3 d9 k3 e1, PS)	44%	
ACCAGTGTTAAGAGAA (sugars k3 d10 k3, PS)	60%	target mRNA inhibition (KRAS; A431, 0.185 µM): 5% and 3%; target mRNA inhibition (KRAS; A431, 0.556 µM): 39% and 19%; target mRNA inhibition (KRAS; A431, 1.667 µM): 59% and 43%; target mRNA inhibition (KRAS; A431, 5 µM): 72% and 60%
ACCAGTGTTAAGAGAA (sugars kddddddddddkekek, PS)	44%	
ACCAGTGTTAAGAGAA (sugars kkddddddddddkeke, PS)	42%	
ACCAGTGTTAAGAGAA (sugars kkdddddddddkekek, PS)	49%	
ACCATTCAAAGTTCAC (sugars kddddddddddkekek, PS)	18%	
ACCATTCAAAGTTCAC (sugars kkkdddddddddkeke, PS)	30%	
ACTCTCTATGAAAGCT (sugars k3 d10 k3, PS)	29%	
ACTTTTTGACAAATGG (sugars k3 d10 k3, PS)	46%	
AGATTGTGCTGAGCTT (sugars kkkddddddddkdkdk, PS)	42%	
AGGAGTCTTTATAGTA (sugars kddddddddddkekek, PS)	31%	
AGGAGTCTTTATAGTA (sugars kkddddddddddkeke, PS)	40%	
AGGAGTCTTTATAGTA (sugars kkkddddddddkdkdk, PS)	30%	

Sequence	target mRNA inhibition (KRAS; A431, 2 µM)	further results
AGGAGTCTTTATAGTA (sugars kkkddddddddkekek, PS)	22%	
AGTATTAACACAGAAG (sugars k3 d10 k3, PS)	27%	
AGTGATTAGGTCAAAT (sugars k3 d10 k3, PS)	23%	
AGTGTGACTCAGTTAA (sugars kkkddddddddkekek, PS)	29%	
AGTGTTTATGCAATGT (sugars k3 d10 k3, PS)	69% and 50%	target mRNA inhibition (KRAS; A431, 0.185 µM): 27% and 9%; target mRNA inhibition (KRAS; A431, 0.556 µM): 46% and 21%; target mRNA inhibition (KRAS; A431, 1.667 µM): 65% and 46%; target mRNA inhibition (KRAS; A431, 5 µM): 83% and 67%
ATAGTTTCCATTGCCT (sugars k3 d10 k3, PS)	50% and 65%	target mRNA inhibition (KRAS; A431, 1.667 µM): 64% and 45%; target mRNA inhibition (KRAS; A431, 5 µM): 75% and 70%
ATCAACTGCATGCACC (sugars k3 d10 k3, PS)	42%	
ATGCAATGTTAATTTA (sugars k3 d10 k3, PS)	9%	
ATGCTGTGAAACTCTC (sugars k3 d9 k3 e1, PS)	37%	
ATGCTGTGAAACTCTC (sugars kdddddddddkekeke, PS)	24%	
ATTAATCCATTTATGT (sugars k3 d10 k3, PS)	3%	
ATTACTTATGCAGAGA (sugars k3 d10 k3, PS)	60%	
ATTGTGCTGAGCTTGA (sugars kddddddddddkekek, PS)	34%	
ATTGTGCTGAGCTTGA (sugars kkddddddddkekekk, PS)	31%	
ATTGTTTAAAAAAAAA (sugars k3 d10 k3, PS)	0%	
ATTTCTGATGTGACTC (sugars k3 d10 k3, PS)	49%	
ATTTGTCAGCAGGACC (sugars k3 d10 k3, PS)	35%	
CAAATGCTAATAATTT (sugars k3 d10 k3, PS)	0%	
CAGTATTAACACAGAA (sugars k3 d10 k3, PS)	7%	
CAGTGTGACTCAGTTA (sugars k3 d9 k3 e1, PS)	42%	
CAGTGTGACTCAGTTA (sugars kkddddddddkekekk, PS)	63%	target mRNA inhibition (KRAS; A431, 0.185 µM): 0%; target mRNA inhibition (KRAS; A431, 0.556 µM): 36%; target mRNA inhibition (KRAS; A431, 1.667 µM): 58%; target mRNA inhibition (KRAS; A431, 5 µM): 67%
CATGTAAATATAGCCC (sugars k3 d10 k3, PS)	5%	
CATTGCTAGTTCAAAA (sugars k3 d10 k3, PS)	9%	
CATTTATGTGACTAGA (sugars k3 d10 k3, PS)	56%	

Sequence	target mRNA inhibition (KRAS; A431, 2 µM)	further results
CATTTATGTGACTAGA (sugars kkddddddddkekekk, PS)	20%	
CCAGTATTAACACAGA (sugars k3 d10 k3, PS)	37%	
CCAGTGATACTTTCAC (sugars kddddddddddkekek, PS)	0%	
CCAGTGTTAAGAGAAC (sugars kkddddddddkekekk, PS)	53%	
CCAGTGTTAAGAGAAC (sugars kkkddddddddkekek, PS)	37%	
CTATAATAATCCCCAT (sugars k3 d10 k3, PS)	6%	
CTATTCATACCAGGTT (sugars k3 d10 k3, PS)	33%	
CTCTTGATTTGTCAGC (sugars k3 d10 k3, PS)		target mRNA inhibition (KRAS; A431, 0.037 µM): 66%; target mRNA inhibition (KRAS; A431, 0.125 µM): 64% and 57%; target mRNA inhibition (KRAS; NCI-H460, 0.037 µM): 55.4%
CTTATGCAGAGAAAAC (sugars k3 d10 k3, PS)	8%	
CTTGATTTGTCAGCAG (sugars kkdddddddddkekek, PS)	49%	
GACTAATAGCAGTGGA (sugars k3 d10 k3, PS)	52% and 62%	
GAGGCAAGATGACACT (sugars k3 d10 k3, PS)	0%	
GAGTCTTTATAGTAAT (sugars kddddddddddkekek, PS)	11%	
TTATCTCCGTCCTGGC (sugars k2 d8 e4 k2, PS)		target mRNA inhibition (IRF5; KARPAS-229, 4 µM): 0%
TTATCTCCGTCCTGGC (sugars k2 d9 e3 k2, PS)		target mRNA inhibition (IRF5; KARPAS-229, 4 µM): 5%
TTATCTCCGTCCTGGC (sugars kkdddddddddkdkdk, PS)		target mRNA inhibition (IRF5; KARPAS-229, 4 µM): 14%
TTATTTCTGCTCCAGG (sugars kdddddddddkekeke, PS)		target mRNA inhibition (IRF5; KARPAS-229, 4 µM): 0%
TTATTTCTGCTCCAGG (sugars kekdddddddddeekk, PS)		target mRNA inhibition (IRF5; KARPAS-229, 0.44444 µM): 53%; target mRNA inhibition (IRF5; KARPAS-229, 1.33333 µM): 69%; target mRNA inhibition (IRF5; KARPAS-229, 4 µM): 56% and 80%; target mRNA inhibition (IRF5; KARPAS-229, 12 µM): 86%
TTCTGCAGGGAGTCAG (sugars kkddddddddkekekk, PS)		target mRNA inhibition (IRF5; KARPAS-229, 4 µM): 0%
TTGTCTAGTGTCATGG (sugars kkddddddddkekekk, PS)		target mRNA inhibition (IRF5; KARPAS-229, 4 µM): 0%
TTGTCTAGTGTCATGG (sugars kkkddddddddkekek, PS)		target mRNA inhibition (IRF5; KARPAS-229, 4 µM): 16%
TTTTGTGACTGTATTA (sugars k3 d10 k3, PS)		target mRNA inhibition (IRF5; KARPAS-229, 4 µM): 2%
